Marks after values point to notes of the source that are not given here.
Experiments:
pain in mCRPC patients = assay: Same clinical study: pain response and pain progression (BPI-SF); assay type: in vivo, human; conditions: for Pain progression, HR: cabazitaxel vs abiraterone or enzalutamide
Description: Pain response (PR): was measured using the Brief Pain Inventory-Short Form for pain intensity score and defined as a decrease by >30% from baseline in the Brief Pain Inventory-Short Form pain intensity item scores observed at two consecutive evaluations weeks apart without an increase in analgesic usage score.
Pain response was defined as a decrease≥30% from baseline in BPI-SF pain intensity score with no increased analgesic use. HRQL was assessed using the Functional Assessment of Cancer Therapy-Prostate (FACT-P) questionnaire. Pain intensity was defined using item 3 of the validated Brief Pain Inventory-Short Form (BPI-SF), which rates pain at its worst in the last 24 hours on a scale of 0 (no pain) to 10 (worst imaginable pain). Analgesic consumption was reported by local investigators and coded by the World Health Organization's analgesic ladder (0=no analgesic; 1=non-opioid analgesics; 2=opioid analgesics for moderate pain; 3=opioids for severe pain). […] A clinically meaningful improvement or deterioration of total FACT-P score was defined as a difference of ±10 points from baseline. Clinically meaningful changes in HRQL and pain response were confirmed at two consecutive evaluations≥3 weeks apart during the on-treatment period. Survival curves were generated by Kaplan-Meier estimates.
(§1) Efficacy analysis used all randomized patients. Stratified log-rank tests were used to analyze time-to-event data. The primary analysis compared radiographic progression-free survival between the two treatment groups using a stratified log-rank test. Survival curves were generated using Kaplan-Meier estimates. Hazard ratios and associated 95% confidence intervals [CI] were estimated using a stratified Cox proportional hazards model. Stratified Cochran-Mantel-Haenszel chi-square tests were used to analyze categorical data. Descriptive statistics were used to summarize patient characteristics. The safety population (randomized patients who received at least one dose of study treatment) was used for all safety analyses.

[1] = tested on: symptomatic skeletal events in mCRPC patients; assay: Same clinical study: symptomatic skeletal events (SSE); assay type: in vivo, human
Text: Time to symptomatic skeletal event rate: is defined as the time interval between the date of randomization and the date of the occurrence of the first event defining a symptomatic skeletal event (occurrence of a new symptomatic fracture, use of radiation therapy to relieve bone pain, occurrence of spinal cord compression or cancer-related orthopedic surgical intervention).
SSEs were defined as either the use of external beam radiation to relieve bone pain, occurrence of new symptomatic pathologic fractures, occurrence of spinal cord compression, or tumor-related orthopedic surgical intervention. SSEs were evaluated at baseline, at each visit, at the end of treatment, and every 12 weeks during follow-up. Standard imaging (bone scans and computed tomography or magnetic resonance imaging of the pelvis, abdomen, and chest) was scheduled at baseline and every 12 weeks until imaging-based disease progression. Pathologic fractures and spinal cord compression were assessed by imaging as needed throughout the study. Time to SSE was defined as time from randomization until first documented SSE.
as §1

[2] = tested on: patients with mCRPC who progressed during or after docetaxel; conditions: every 3 weeks with prednisone 10 mg daily; cabazitaxel 25 mg/m^2, mitoxantrone 12 mg/m^2; cited from earlier work
[3] = tested on: mCRPC patients, safety population; assay: Same clinical study: safety (adverse events, laboratory abnormalities, dose reductions); assay type: in vivo, human
Description: For patients in Arm A, cabazitaxel 25 mg/m^2 was administered intravenously over 1 hour every 3 weeks along with oral prednisone 10 mg given daily. Primary prophylactic granulocyte-colony stimulating factor (G-CSF) was required at each cycle for all patients in the cabazitaxel arm
For patients in Arm B, abiraterone acetate was administered orally at 1000 mg once daily along with oral prednisone 5 mg given twice daily or enzalutamide was administered orally at 160 mg once daily continuously. Abiraterone acetate was administered to patients who had received enzalutamide prior to study entry. Enzalutamide was administered to patients who received prior abiraterone acetate.
Cabazitaxel 25 mg/m^2, was administered intravenously over 1 hour every 3 weeks with oral prednisone 10 mg daily. Premedication included an antihistamine, glucocorticoid (dexamethasone 8 mg or equivalent), and histamine 2 receptor antagonist. Antiemetic prophylaxis was administered at physician's discretion. Primary prophylactic granulocyte-colony stimulating factor was required during each cycle of cabazitaxel. Patients received either abiraterone acetate (1000 mg orally once daily and oral prednisone 5 mg twice daily) or enzalutamide (160 mg orally once daily) continuously. A treatment cycle was 3 weeks in both arms. Abiraterone acetate was given to patients who previously received enzalutamide before study entry. Enzalutamide was given to patients who previously received abiraterone acetate.
Up to a maximum of 2 dose reductions was allowed per patient when necessary due to toxicity and according to the table below:
as §1

[4] = human, in vivo, listed as cabazitaxel

CO[C@H]1C(=O)[C@]2(C)[C@@H](OC)C[C@H]3OC[C@@]3(OC(C)=O)[C@H]2[C@H](OC(=O)c2ccccc2)[C@]2(O)C[C@H](OC(=O)[C@H](O)[C@@H](NC(=O)OC(C)(C)C)c3ccccc3)C(C)=C1C2(C)C [Cabazitaxel, 4α-acetoxy-2α-benzoyloxy-5β,20-epoxy-1p-hydroxy-7β,10β-dimethoxy-9-oxo-11-taxen-13α-yl (2R,3S)-3-tert-butoxycarbonylamino-2-hydroxy-3-phenylpropionate]
Pain (BPI-SF), Kaplan-Meier probability of no deterioration at 3 months (pain in mCRPC patients; 3 months): 87.8 | Probability of not having pain progression after 12 months (pain in mCRPC patients; 12 months): 66.2% | Pain progression, HR (pain in mCRPC patients): 0.55* | Pain progression, HR (pain in mCRPC patients; listed as cabazitaxel): 0.55 | Patients with a confirmed pain response (pain in mCRPC patients; evaluable 111 and 109): 50 n | Patients with a confirmed pain response (pain in mCRPC patients; evaluable patients, listed as cabazitaxel): 45.0% | Median time to pain progression (BPI-SF) (pain in mCRPC patients; human, in vivo): NE (NE-NE) | Pain (BPI-SF) deterioration events (pain in mCRPC patients; human, in vivo): 22.5% | Pain (BPI-SF) deterioration events, n/nT (pain in mCRPC patients; human, in vivo): 25/111 | Median time to pain progression (BPI-SF) (pain in mCRPC patients; [4]): not reached | Patients estimated to have a symptomatic skeletal event at 18 months ([1]; 18 months): 28.8% | Kaplan-Meier probability of not having symptomatic skeletal events ([1]; at 3 months): 92.6% | Kaplan-Meier probability of not having symptomatic skeletal events ([1]; at 6 months): 85.8% | Kaplan-Meier probability of not having symptomatic skeletal events ([1]; at 12 months): 79.4% | Kaplan-Meier probability of not having symptomatic skeletal events ([1]; at 18 months): 71.2% | Time to symptomatic skeletal events, hazard ratio ([1]; cabazitaxel vs androgen signaling targeted inhibitor): 0.59 | Surgery to the bone (first SSE) ([1]; human, in vivo): 0 n | Median overall survival, TROPIC trial [2]: 15.1 months | Grade ≥3 neutropenia, measured at nadir by blood test [3]: 55 patients | Anemia (laboratory abnormality) ([3]; All grades): (99.2) % | Constipation ([3]; All grades): 19 n | Hematuria ([3]; All grades): 19 n | Hypokalemia (laboratory abnormality) ([3]; All grades): (12.0) % | Leukopenia (laboratory abnormality) ([3]; All grades): (74.4) % | Thrombocytopenia (laboratory abnormality) ([3]; All grades): (40.8) % | Alopecia ([3]; Grade ≥3): 0 n | Anemia (laboratory abnormality) ([3]; Grade ≥3): (8.0) % | Arthralgia ([3]; Grade ≥3): 0 n | Asthenia/fatigue ([3]; Grade ≥3): 4.0% | Bladder and urethral symptoms ([3]; Grade ≥3): 0 n | Cardiac disorders ([3]; Grade ≥3): 0.8% | Constipation ([3]; Grade ≥3): 0 n | Diarrhea ([3]; Grade ≥3): 3.2% | Dysgeusia ([3]; Grade ≥3): 0 n | Dyspnea ([3]; Grade ≥3): 0 n | Febrile neutropenia ([3]; Grade ≥3): 3.2% | Hypokalemia (laboratory abnormality) ([3]; Grade ≥3): (0.8) % | Leukopenia (laboratory abnormality) ([3]; Grade ≥3): (32.0) % | Musculoskeletal pain/discomfort ([3]; Grade ≥3): 1.6% | Nausea/vomiting ([3]; Grade ≥3): 0 n | Peripheral edema ([3]; Grade ≥3): 0 n | Peripheral neuropathy ([3]; Grade ≥3): 3.2% | Psychiatric disorders ([3]; Grade ≥3): 0 n | Renal disorders ([3]; Grade ≥3): 3.2% | Spinal cord and nerve root disorders ([3]; Grade ≥3): 2.4% | Stomatitis ([3]; Grade ≥3): 0 n | Thrombocytopenia (laboratory abnormality) ([3]; Grade ≥3): (3.2) % | Weight decreased ([3]; Grade ≥3): 0 n | Grade 5 adverse events related to bronchial aspiration ([3]; human, in vivo): one | Grade 5 adverse events related to general health deterioration due to progressive disease ([3]; human, in vivo): two | Grade 5 adverse events related to head injury ([3]; human, in vivo): one | Grade 5 adverse events related to infections ([3]; human, in vivo): two | Grade 5 adverse events related to spinal cord compression ([3]; human, in vivo): one | Nail disorders ([3]; human, in vivo): no nail disorders were reported | Any adverse event leading to permanent treatment discontinuation [3, 4]: 19.8% | Any adverse events [3, 4]: 98.4% | Any grade ≥3 adverse events [3, 4]: 56.3% | Any serious adverse events [3, 4]: 38.9% | Grade ≥3 adverse events occurring more frequently in patients ≥70 years of age ([3]; ≥70 vs <70 years): asthenia, diarrhea and febrile neutropenia

From US20210244704A1, “Cabazitaxel in mCRPC Patients Previously Treated with Docetaxel and Who Failed a Prior androgen signaling targeted inhibitor Agent” (SANOFI MATURE IP, priority 2019, published 2021)
